In PMC10575921 (Nature Communications, 2023):
“And” between values parts separate entries of the source, which are not always exact repeats. Identical values can stand only once. Like-named read-outs stand apart in the source and are kept apart here.

What was measured:
[1] = test system: human primary hepatocytes; conditions: primary hepatocyte cytotoxicity
SARS-CoV-2 3CL^pro [2] = target: T1, SARS-CoV-2 3CL^pro (Severe acute respiratory syndrome coronavirus 2, UniProt P0DTD1); test: biochemical; conditions: for inhibition at 0.01563 µM: concentration 15.63 nM; for inhibition at 0.03125 µM: concentration 31.25 nM; for inhibition at 1 µM: concentration 1000.00 nM; for inhibition at 0.5 µM: concentration 500.00 nM
[3] = buffer, pH 7.4
SARS-CoV-2 Delta strain = test: microbe, parasite or virus in culture; type: cell-based
in vitro = conditions: African green monkey
SARS-CoV-2 3CL^pro [4] = target: T1, SARS-CoV-2 3CL^pro; type: biochemical

For CC/C(=C(\c1ccccc1)c1ccc(OCCN(C)C)cc1)c1ccccc1 [Tamoxifen], the “% of vehicle control” value ([1]; 0.206 μM) was 109.51%, the “% of vehicle control” value ([1]; 5.56 μM) was 81.38% and 83.81% and 90.39% and the “% of vehicle control” value ([1]; 16.67 μM) was 0.08% and 0.0644% and 0.0757%. For the same molecule, the “% of vehicle control” value ([1]; 50 μM) was 0.06% and 0.05% and the “% of vehicle control” value ([1]; 150 μM) was 0.0474% and 0.03% and 0.04%.

Work on CC(C)(C)NC(=O)N[C@H](C(=O)N1C[C@H]2[C@@H]([C@H]1C(=O)NC(CC1CCC1)C(=O)C(N)=O)C2(C)C)C(C)(C)C (stereo partly shown) [boceprevir, reference compound] yielded an inhibition at 50 µM (SARS-CoV-2 3CL^pro [2]; 50000.00 nM, read-out: inhibition ratio (%)) of 90.9%, an inhibition at 100 µM (SARS-CoV-2 3CL^pro [2]; 100000.00 nM, read-out: inhibition ratio (%)) of 97.1% and an inhibition at 25 µM (SARS-CoV-2 3CL^pro [2]; […], read-out: inhibition ratio (%)) of 82.4%.

For CC(C)(C)NC(=O)N[C@H](C(=O)N1C[C@H]2[C@@H]([C@H]1C(=O)N[C@H](C=O)C[C@@H]1CCNC1=O)C2(C)C)C(C)(C)C [compound 1], the inhibition at 0.01563 µM (SARS-CoV-2 3CL^pro [2]; read-out: inhibition ratio (%)) was 72.2%, the inhibition at 0.03125 µM (SARS-CoV-2 3CL^pro [2]; read-out: inhibition ratio (%)) was 81.7% and the inhibition at 1 µM (SARS-CoV-2 3CL^pro [2]; read-out: inhibition ratio (%)) was 99.4%. For the same molecule, the “GSHt1/2 (half-life of the electrophile warhead to react with glutathione)” value [3] was 1.68 h.

With CC(C)(C)NC(=O)N[C@H](C(=O)N1C[C@H]2[C@@H]([C@H]1C(=O)N[C@H](C#N)C[C@@H]1CCNC1=O)C2(C)C)C(C)(C)C [compound 2] the inhibition at 0.03125 µM (SARS-CoV-2 3CL^pro [2]; read-out: inhibition ratio (%)) was 59.6%, the inhibition at 0.5 µM (SARS-CoV-2 3CL^pro [2]; read-out: inhibition ratio (%)) was 100% and the “GSHt1/2 (half-life of the electrophile warhead to react with glutathione)” value [3] was 16 h. For the same molecule, the EC50 (SARS-CoV-2 Delta strain; Severe acute respiratory syndrome coronavirus 2, Vero C1008) was 7400 nM, the EC50 (SARS-CoV-2 Delta strain; Severe acute respiratory syndrome coronavirus 2, Vero C1008, read-out: EC50 (nM), single independent experiment) was 5890 nM and the EC50 (SARS-CoV-2 Delta strain; read-out: EC50^CP) was 319 nM. The CC50 (in vitro) was greater than 500000 nM.

With CC(=O)/C=C/[C@H](C[C@@H]1CCNC1=O)NC(=O)[C@@H]1[C@@H]2[C@H](CN1C(=O)[C@@H](NC(=O)NC(C)(C)C)C(C)(C)C)C2(C)C [compound 3] the “reversibility of SARS-CoV-2 3CLpro inhibition” value (SARS-CoV-2 3CL^pro [4]) was “irreversible”, the IC50 (SARS-CoV-2 3CL^pro [2]; IC50) was 14 nM and the IC50 (SARS-CoV-2 3CL^pro [2]; IC50 (nM)) was 12 nM and 17 nM and 14 nM. For the same molecule, the inhibition at 0.01563 µM (SARS-CoV-2 3CL^pro [2]; read-out: inhibition ratio (%)) was 52.7%, the inhibition at 0.03125 µM (SARS-CoV-2 3CL^pro [2]; read-out: inhibition ratio (%)) was 85.4% and the inhibition at 0.5 µM (SARS-CoV-2 3CL^pro [2]; read-out: inhibition ratio (%)) was 101%. For the same molecule, the inhibition at 1 µM (SARS-CoV-2 3CL^pro [2]; read-out: inhibition ratio (%)) was 99.6% and the “GSHt1/2 (half-life of the electrophile warhead to react with glutathione)” value [3] was 0.25 h.

With CC(C)(C)NC(=O)N[C@H](C(=O)N1CC[C@@H](Oc2ccccc2)[C@H]1C(=O)N[C@H](C#N)C[C@@H]1CCNC1=O)C(C)(C)C [compound 4] the IC50 (SARS-CoV-2 3CL^pro [2]; IC50) was 6940 nM, the IC50 (SARS-CoV-2 3CL^pro [2]; IC50 (nM)) was 7170 nM and 7720 nM and 5940 nM and the inhibition at 3.125 µM (SARS-CoV-2 3CL^pro [2]; concentration 3125.00 nM, read-out: inhibition ratio (%)) was 31.2%. It also gave an inhibition at 50 µM (SARS-CoV-2 3CL^pro [2]; concentration 50000.00 nM, read-out: inhibition ratio (%)) of 91.2%, an inhibition at 100 µM (SARS-CoV-2 3CL^pro [2]; concentration 100000.00 nM, read-out: inhibition ratio (%)) of 96.8% and an inhibition at 25 µM (SARS-CoV-2 3CL^pro [2]; concentration […], read-out: inhibition ratio (%)) of 86%.

For CC(C)(C)NC(=O)N[C@H](C(=O)N1C[C@@H](c2ccccc2)C[C@H]1C(=O)N[C@H](C#N)C[C@@H]1CCNC1=O)C(C)(C)C [compound 5], the IC50 (SARS-CoV-2 3CL^pro [2]; IC50) was 814 nM, the IC50 (SARS-CoV-2 3CL^pro [2]; IC50 (nM)) was 883 nM and 880 nM and 679 nM and the inhibition at 5 µM (SARS-CoV-2 3CL^pro [2]; concentration 5000.00 nM, read-out: inhibition ratio (%)) was 91.4%. For the same molecule, the inhibition at 10 µM (SARS-CoV-2 3CL^pro [2]; concentration 10000.00 nM, read-out: inhibition ratio (%)) was 94.8%.
